These results are taken from US20030211458A1, “Measurements of enzymatic activity in a single, individual cell in population” (priority 2000, published 2003).

Data set [1] has as its system intracellular nonspecific esterase. The data set is described as follows: Individual-cell sequential FDA hydrolysis (KMAPP, VMAX) on CS-S cytometer. In kind it is cell-based, human. To be noted: different cell carriers.
Data set [2] shares this test system. The data set is described as follows: Flow cytometer (FACSCalibur) population average KMAPP and VMAX of FDA hydrolysis. In kind it is cell-based, human. As for the experimental part: Methods Cell Biol (1994) 41: 469-508. Four means of intracellular fluorescence intensities (IFI) were calculated from data accumulated along four time gates of 25 second each and 30 seconds apart, from which V0 was extracted. This process was sequentially performed on five different aliquots of cells (50 μl, at a concentration of 6×10^6 cells/ml) each exposed to different FDA concentrations (0.3, 0.6, 1.2, 1.8 and 2.4 μM. Introducing these average V0 in values Eq. 8 yielded population average KMAPP and VMAX of 2.16 μM and 4.32 μM and 6.6 and 5.83 in cells incubated with and without PHA. It should be noted that while KMAPP is an intrinsic value, VMAX depends on the optoelelctronic arrangement under use. Thus, obviously, at the population level, measurements carried out both on FC and average calculated from individual cell KMAPP measurement data yield similar KMAPP values, indicating the validity of the invented methodology.

Data set [3] has the same test system. The data set is described as follows: Individual-cell sequential FDA hydrolysis (KMAPP, VMAX) on CS-S cytometer. In kind it is cell-based, human. The settings on record: for FI rate ratios of the same trapped cells sequentially exposed to different FDA concentrations: same cell carrier; for average KMAPP / average VMAX: average of individual cells. On the procedure: Measuring Intracellular Nonspecific Esterase Activity in a Single Lymphocyte Using Fluorescein-Diacetate (FDA) as the Substrate.
Phytohemagglutinin PHA (HA15, Murex Biotech) was reconstituted in 5 ml of double-distilled water and further diluted ten times. For stimulation, 10 μl of this solution was added to a 90 μl cell suspension (7×10^6 cells/ml).
A staining solution of 3.6 μM FDA (Riedel-de Haen Ag. Seelze-Hanover) in Dulbecco Phosphate Buffered Saline (PBS, Biological Industries) was prepared as follows: 50 mg of FDA was dissolved in 5 ml of DMSO (Sigma). 7.5 μl of this solution was added to 50 ml PBS. For 0.6, 1.2 and 2.4 μM the solution was further diluted in PBS.
30 Heparinized blood (30 ml), was taken from healthy, normal volunteers. The procedure for separating the PBMC has been described in detail, elsewhere [Sunray M, Deutsch M, Kaufman M, Tirosh R, Weinreb A, and Rachmani H. Cell Activation influences cell staining linetics, Spectrochimica Acta A (1997) 53:1645-1653]. Shortly after removing the iron absorbing cells, the remaining cells are layered on a two-layer (100% and 80%) cell density gradient (Ficoll Paque, Pharmacia 1.077 g/ml) and centrifuged. The cells accumulated at the interface between the two Ficoll layers, were collected and kept at 37° C. in 5 ml of enriched culture medium overnight. The next day the PBMC were washed and resuspended in PBS at a final concentration of 7·10^6 cells/ml. More than 70% of the cells were defined as T lymphocytes and viability, which was determined using eosin, was always higher than 90%.
Freshly prepared PBMC (7·10^6 cells/ml) were incubated at 37° C., 5% CO2 with 5 μgr/ml PHA for 30 minutes. PBMC controls were incubated without PHA under identical conditions.
The multiparametric, computerized, discrete cytometer CS-S used in performing this example was described in detail in the above specified US Patents. Its central feature is a cell carrier (CC) incorporating a 100×100 dimensional array having a conical cross-section with an upper opening of ˜7 μm and lower opening of ·4 μm, each approximately 20 μm apart, in which individual cells are trapped. The cell carrier is mounted on a computer-controlled stage that enables repeated multi-scanning of the same cells.
Loading the cells in wells traps on the Cell Carrier (CC) was carried out, as described in Deutsch M, and Weinreb A., Apparatus for High Precision Repetitive Sequential Optical Measurement of Living Cells, Cytometry (1994) 16: 214-226. An aliquot of 80 μl of unstained cell suspension (7×10^6 cells/ml) was loaded on the CC. Initial scanning was then performed in order to detect individual cell background scattering and auto-fluorescence. This undesired signal is recorded per measurement location and subtracted from the total emission signal (after exposure) in order to obtain the correct fluorescence signal.
For fluorescence intensity FI(t) measurements, trapped cells on the CC were sequentially exposed to increasing concentrations of FDA in PBS staining solutions.
Following background measurement, the volume of PBS, which covers the cells, was pumped out and the following procedure was carried out:
At time point zero, 40 μl of the lowest substrate concentration solution was applied on top of the trapped cells and a pre-chosen cell field was sequentially scanned 6 times. This yielded 6 accurately timed FI data points per each individual cell at a given dye concentration. FI is usually measured utilizing epi-fluoescence optical arrangement which permits the differentiation between the excitation energy and the emitted fluorescence energy to be detected by photomultipliers, CCD detectors etc.
The above procedure is repeated for each different substrate solution used in the experiment.
This yielded six FI data points for each individual cell, per substrate concentration, from which V was extracted and the individual cell KMAPP and VMAX values were calculated. […]

The subject of data set [4] is Peripheral blood lymphocytes. To be noted: individual cell, FDA staining before and after incubation at 37° C., FIG. 7.
Procedure: Peripheral blood lymphocytes were loaded on a CC, and exposed to FDA, after which individual FI(t) was measured. […] At the end of incubation, the same cells were again exposed to the same FDA concentration and FI(t) measurements were again performed.
Since cells are in general heterogeneous, one would expect a distribution of FI(t) rates (slopes) in the same experiment. […] Thus, in such an experimental procedure, the determining parameter is the ratio between the initial and the final slopes, namely, the ratios between FI(t) slopes prior to and after incubation (with and without drugs), as well as ratios of individual KMAPP and VMAX prior to and after incubation.
Setting [5] is: 1.2/0.6 μM FDA (concentration ratio 2.0).
The mark [6] stands for this setting: 2.4/0.6 μM FDA (concentration ratio 4.0).
The mark [7] stands for this setting: 3.6/0.6 μM FDA (concentration ratio 6.0).
Setting [8] is: FDA substrate, cells incubated without PHA.
Where [9] appears, read: FDA substrate, cells incubated without PHA, CS-S.
Where [10] appears, read: PHA-incubated vs control cells, CS-S.

As for `CC(=O)Oc1ccc2c(c1)Oc1cc(OC(C)=O)ccc1C21OC(=O)c2ccccc21` [FDA, Fluorescein-Diacetate], the figures for the “FI rate ratios of cells parallely exposed to different FDA concentrations” value in data set [1] (setting [5]), in data set [1] (setting [6]) and in data set [1] (setting [7]) were 1.9, 4.4 and 6.2, respectively. Besides, the “population average KMAPP” value in data set [2] (setting [8]) is 4.32 µM. The “population average VMAX” value in data set [2] (setting [8]) came out at 5.83. In addition, the “FI rate ratios of the same trapped cells sequentially exposed to different FDA concentrations” value was found to be 2.1 in data set [3] (setting [5]), 3.6 in data set [3] (setting [6]) and 5.6 in data set [3] (setting [7]). In data set [3] (setting [9]), the “average KMAPP” value is 4.88 µM. In data set [3] (setting [9]), the “average VMAX” value came out at 695 intensity/sec.
As to Phytohemagglutinin [PHA], the “population average VMAX” value in data set [2] (cells incubated with PHA) is on record as 6.6. Besides, in data set [2] (cells incubated with PHA, FDA 0.3-2.4 μM), the “population average KMAPP” value is 2.16 µM. In data set [3] (setting [10]), the “decrease in KMAPP compared to the control” value was found to be 69% and the “decrease in VMAX compared to the control” value was determined as 6%. The “average KMAPP” value in data set [3] (cells incubated with PHA, FDA substrate 0.6-3.6 μM, CS-S) amounted to 1.50 µM. In addition, the “average VMAX” value in data set [3] (cells incubated with PHA, FDA substrate, CS-S) is given as 652 intensity/sec.
Regarding `OO` [H2O2, hydrogen peroxide], in data set [4], the “ratio pre to post treatment slopes (FI rate), control cells relative to treated cells” value is on record as “double”.
